Source: patent US20260152487A1 (Sitryx Therapeutics Limited, priority 2021, published 2026)
Like-named read-outs stand apart in the source and are kept apart here.

Key:
[1] = target: T1, recombinant human PKLR (Homo sapiens, UniProt P30613); assay: Human PKLR activation assay (Kinase-Glo Plus luminescent detection of generated ATP); type: biochemical; conditions: for EC50: read-out: hPKLR EC50; for Emax: read-out: hPKLR Emax (%)
T1 construct: His (N); purchased R&D Systems
Protocol: Compound activation of recombinant human PKLR pyruvate kinase activity was determined by biochemical assay. N-terminal His-tagged enzyme was sourced from R&D Systems and its substrates phosphoenolpyruvate (PEP) and ADP from Sigma-Aldrich and 2Bscientific Ltd, respectively. The Kinase-Glo® Plus luminescence assay was from Promega. All other reagents were from Sigma-Aldrich. Test Compounds were prepared as 10 mM DMSO stocks and dilution series prepared in DMSO for direct dilution into Assay Buffer comprising 50 mM imidazole, 50 mM KCl, 7 mM MgCl2, 0.01% Tween20, 0.05% BSA (pH 7.2).
Human PKLR was diluted into Assay Buffer to a final concentration of 5 pM. Enzyme-Assay Buffer mix was dispensed into 384-well shallow-well white-walled plates and Test Compounds added by acoustic dispense (Echo®, Labcyte Inc).
After 60 minutes' incubation on an orbital shaker (300 rpm, 26° C.), enzyme activity was quantified by the luminescent detection of generated ATP. Kinase-Glo® Plus reagent was added to each well and the plates incubated for a further 15 minutes on an orbital shaker in the dark (300 rpm, 26° C.) before luminescence measurement on a plate reader (PHERAstar® FSX, BMG Labtech).
Percentage activation was calculated by normalising […] signals to plate LOW (DMSO vehicle) and HIGH (5 μM TEPP-46) controls. EC50 and Emax values were determined from 4-parameter logistic fits of compound concentration-response curves.

[2] = target: T2, recombinant human PKM2 (Homo sapiens, UniProt P14618); assay: Human PKM2 activation assay (Kinase-Glo Plus luminescent detection of generated ATP); type: biochemical; conditions: for Emax: read-out: hPKM2 Emax; for EC50: read-out: hPKM2 EC50
T2 construct: His (N); purchased R&D Systems
How it was run: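 Luminescent ATP detection (Kinase-Glo Plus, 15 min, 26 °C) followed a 60 min, 26 °C shaken reaction of compound with […] His-tagged human PKM2, PEP and ADP in imidazole/KCl/MgCl2 buffer with Tween20 and BSA, pH 7.2.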

[3] = activation of recombinant human PKLR, 4-parameter logistic fit
[4] = percentage activation normalised to DMSO vehicle (LOW) and 5 μM TEPP-46 (HIGH) controls
[5] = percentage activation normalised to DMSO vehicle (LOW) and 5 μM TEPP-46 (HIGH)
[6] = recombinant human PKM2 activation, 4-parameter logistic fit

T2 sequence (P14618 2-531 limits assumed): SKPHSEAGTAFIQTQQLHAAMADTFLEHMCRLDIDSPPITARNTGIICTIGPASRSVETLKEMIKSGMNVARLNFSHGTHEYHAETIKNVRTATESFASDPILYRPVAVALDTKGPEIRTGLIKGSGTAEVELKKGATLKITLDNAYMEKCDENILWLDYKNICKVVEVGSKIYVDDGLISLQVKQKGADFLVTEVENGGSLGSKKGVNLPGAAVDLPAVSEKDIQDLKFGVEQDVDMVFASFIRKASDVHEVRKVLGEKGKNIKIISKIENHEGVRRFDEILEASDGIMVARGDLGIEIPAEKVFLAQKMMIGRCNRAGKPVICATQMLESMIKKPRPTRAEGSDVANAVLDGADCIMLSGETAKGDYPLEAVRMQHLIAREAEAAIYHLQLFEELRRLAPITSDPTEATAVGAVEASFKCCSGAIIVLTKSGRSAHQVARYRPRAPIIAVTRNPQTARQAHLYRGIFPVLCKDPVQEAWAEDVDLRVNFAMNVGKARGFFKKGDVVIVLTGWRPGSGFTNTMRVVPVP
T1 sequence (P30613 whole entry): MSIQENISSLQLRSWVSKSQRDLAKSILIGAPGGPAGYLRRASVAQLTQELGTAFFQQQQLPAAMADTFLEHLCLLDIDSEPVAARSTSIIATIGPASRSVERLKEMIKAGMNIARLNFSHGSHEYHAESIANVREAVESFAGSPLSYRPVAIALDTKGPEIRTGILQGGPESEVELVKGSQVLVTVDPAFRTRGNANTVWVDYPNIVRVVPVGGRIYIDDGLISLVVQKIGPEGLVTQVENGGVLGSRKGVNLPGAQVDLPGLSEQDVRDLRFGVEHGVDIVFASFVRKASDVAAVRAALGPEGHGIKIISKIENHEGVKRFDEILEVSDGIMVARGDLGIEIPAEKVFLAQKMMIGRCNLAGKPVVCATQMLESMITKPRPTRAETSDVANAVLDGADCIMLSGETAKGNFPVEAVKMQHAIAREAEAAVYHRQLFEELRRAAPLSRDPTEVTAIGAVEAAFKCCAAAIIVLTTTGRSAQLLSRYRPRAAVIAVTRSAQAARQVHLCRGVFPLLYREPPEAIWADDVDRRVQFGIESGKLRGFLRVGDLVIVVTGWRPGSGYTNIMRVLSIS

Compound	EC50 [1, 3] [nM]	Emax [1, 4] [%]	Emax [2, 5] [%]	EC50 [2, 6] [nM]	also measured
O=c1c2ccc(S(=O)(=O)c3cn[nH]c3)cc2cnn1Cc1ccc2occc2n1 [Example 298, 6-((1H-pyrazol-4-yl)sulfonyl)-2-(furo[3,2-b]pyridin-5-ylmethyl)phthalazin-1(2H)-one]	2.65	118	108	19.6	
O=c1c2ccc(S(=O)(=O)c3cn[nH]c3)cc2cnn1Cc1ccc2c(n1)CCO2 [Example 253, 6-(1H-pyrazol-4-ylsulfonyl)-2-((2,3-dihydrofuro[3,2-b]pyridin-5-yl)methyl)phthalazin-1(2H)-one]	5.59	107	104	20.1	EC50 ([1]; * data from repeat experiments): 4.32 nM; Emax ([1]; line of the repeat experiments (EC50 marked *)): 118%; EC50 ([2]; data from repeat experiments (*)): 21.6 nM; Emax ([2]; line of the repeat experiment (EC50 marked *)): 105%
Cn1cc(S(=O)(=O)c2ccc3c(=O)n(Cc4cccc(C5CC5)n4)ncc3c2)cn1 [Example 275, 2-((6-cyclopropylpyridin-2-yl)methyl)-6-((1-methyl-1H-pyrazol-4-yl)sulfonyl)phthalazin-1(2H)-one]	19.5	120	95.9	50.5	
O=c1c2ccc(S(=O)(=O)c3ccc4c(c3)OCCO4)cc2cnn1Cc1cc[nH]n1 [Example 207, 2-((1H-pyrazol-3-yl)methyl)-6-((2,3-dihydrobenzo[b][1,4]dioxin-6-yl)sulfonyl)phthalazine-1(2H)-one]	4.2	123	99.9	33.3	
O=c1c2ccc(S(=O)(=O)c3ccc4occc4c3)cc2cnn1Cc1cc[nH]n1 [Example 195, 2-((1H-pyrazol-3-yl)methyl)-6-(benzofuran-5-ylsulfonyl)phthalazin-1(2H)-one]	2	121	112	18.4	
Cc1cccc(Cn2ncc3cc(S(=O)(=O)c4cc[nH]n4)ccc3c2=O)n1 [Example 239, 6-((1H-pyrazol-3-yl)sulfonyl)-2-((6-methylpyridin-2-yl)methyl)phthalazin-1(2H)-one]	24.8	135	106	109	
O=c1c2ccc(S(=O)(=O)c3cc4c(cn3)OCC4)cc2cnn1Cc1cc[nH]n1 [Example 258, 2-((1H-pyrazol-3-yl)methyl)-6-((2,3-dihydrofuro[2,3-c]pyridin-5-yl)sulfonyl)phthalazin-1(2H)-one]	15.3	142	108	88.8	
O=c1c2ccc(S(=O)(=O)c3cn[nH]c3)cc2cnn1Cc1cc2n(n1)CCO2 [Example 323]	6.44			50.5	
O=c1c2ccc(S(=O)(=O)c3cnn(CCO)c3)cc2cnn1Cc1ccc2c(n1)CCO2 [Example 309]	6.58			50.4	
O=c1c2ccc(S(=O)(=O)c3cnn(C4CC4)c3)cc2cnn1Cc1ccn(C2CC2)n1 [Example 196, 2-((1-cyclopropyl-1H-pyrazol-3-yl)methyl)-6-((1-cyclopropyl-1H-pyrazol-4-yl)sulfonyl)phthalazin-1(2H)-one]	17	120	98.9	47.6	
COc1ccc(S(=O)(=O)c2ccc3c(=O)n(Cc4cccc(N)c4)ncc3c2)cc1 [Example 142, 2-(3-aminobenzyl)-6-((4-methoxyphenyl)sulfonyl)phthalazin-1(2H)-one]	4.1	108	112	25.8	
O=c1c2ccc(S(=O)(=O)c3ccc4occc4n3)cc2cnn1Cc1ccn(C2CC2)n1 [Example 256, 2-((1-cyclopropyl-1H-pyrazol-3-yl)methyl)-6-(furo[3,2-b]pyridin-5-ylsulfonyl)phthalazin-1(2H)-one]	3.33	136	95.5	31.7	
O=c1c2ccc(S(=O)(=O)c3ccc4c(c3)CCO4)cc2cnn1Cc1cc[nH]n1 [Example 203, 2-((1H-pyrazol-3-yl)methyl)-6-((2,3-dihydrobenzofuran-5-yl)sulfonyl)phthalazin-1(2H)-one]	2.4	123	114	35.3	
COc1ccc(S(=O)(=O)c2ccc3c(=O)n(Cc4ccn(C5CC5)n4)ncc3c2)cn1 [Example 205, 2-((1-cyclopropyl-1H-pyrazol-3-yl)methyl)-6-((6-methoxypyridin-3-yl)sulfonyl)phthalazin-1(2H)-one]	8	115	120	59.2	
Cc1nc(S(=O)(=O)c2ccc3c(=O)n(Cc4cc[nH]n4)ncc3c2)cs1 [Example 320]	14.8	131	99.6	120	
O=c1c2cc(NCCO)c(S(=O)(=O)c3ccccc3)cc2cnn1Cc1ccn(C2CC2)n1 [Example 265, 2-((1-cyclopropyl-1H-pyrazol-3-yl)methyl)-7-((2-hydroxyethyl)amino)-6-(phenylsulfonyl)phthalazin-1(2H)-one]	13.5	127	114	134	
O=c1c2ccc(S(=O)(=O)c3ccccc3)cc2cnn1Cc1n[nH]cc1F [Example 110, 2-((4-fluoro-1H-pyrazol-3-yl)methyl)-6-(phenylsulfonyl)phthalazin-1(2H)-one]	29.6	118	119	68.6	
Cc1ccc(F)c(Cn2ncc3cc(S(=O)(=O)c4cn[nH]c4)ccc3c2=O)n1 [Example 252, 6-((1H-pyrazol-4-yl)sulfonyl)-2-((3-fluoro-6-methylpyridin-2-yl)methyl)phthalazin-1(2H)-one]	18	120	105	107	
COc1ccc([S@@](=N)(=O)c2ccc3c(=O)n(Cc4ccc(OC)nc4)ncc3c2)cc1 (single isomer, unassigned) [Example 191]	14			85.6	hPKLR Emax (%) [1, 4]: 133%; hPKM2 Emax [2, 5]: 91.2%
Cc1cc(Cn2ncc3cc(S(=O)(=O)c4ccccc4)ccc3c2=O)sn1 [Example 97, 2-((3-methylisothiazol-5-yl)methyl)-6-(phenylsulfonyl)phthalazin-1(2H)-one]			99.1	715	
CCOc1ccc(S(=O)(=O)c2ccc3c(=O)n(Cc4ccn(C)n4)ncc3c2)cc1 [Example 216, 6-((4-ethoxyphenyl)sulfonyl)-2-((1-methyl-1H-pyrazol-3-yl)methyl)phthalazin-1(2H)-one]			103	74.3	
Cn1cc(S(=O)(=O)c2ccc3c(=O)n(Cc4ccn(C5CC5)n4)ncc3c2)cn1 [Example 236, 2-((1-cyclopropyl-1H-pyrazol-3-yl)methyl)-6-((1-methyl-1H-pyrazol-4-yl)sulfonyl)phthalazin-1(2H)-one]			116	120	
COc1ccc(Cn2ncc3cc(S(=O)(=O)c4ccccc4)ccc3c2=O)cc1 [Example 49, 2-(4-methoxybenzyl)-6-(phenylsulfonyl)phthalazin-1(2H)-one]			98.2	122	
COc1ccnc(S(=O)(=O)c2ccc3c(=O)n(Cc4ccc(OC)nc4)ncc3c2)c1 [Example 165, 6-(4-methoxypyridin-2-ylsulfonyl)-2-((6-methoxypyridin-3-yl)methyl)phthalazin-1(2H)-one]			77.5	456	
Cc1cccc(Cn2ncc3cc(S(=O)(=O)c4csc([C@@H](C)O)n4)ccc3c2=O)n1 (single isomer, unassigned) [Example 296]			92.2	111	
O=c1c2ccc(S(=O)(=O)c3ccccn3)cc2cnn1Cc1cc[nH]n1 [Example 211, 2-((1H-pyrazol-3-yl)methyl)-6-(pyridin-2-ylsulfonyl)phthalazin-1(2H)-one]			80.7	222	
COc1cccc(Cn2ncc3cc(S(=O)(=O)c4cn[nH]c4)ccc3c2=O)n1 [Example 294, 6-((1H-pyrazol-4-yl)sulfonyl)-2-((6-methoxypyridin-2-yl)methyl)phthalazin-1(2H)-one]			104	150	
O=c1c2ccc(S(=O)(=O)c3cc[nH]n3)cc2cnn1Cc1cccc(C2CC2)n1 [Example 302]			104	119	
